From ChEMBL document CHEMBL1909046, “DrugMatrix in vitro pharmacology data”

Tests used:
[1] = biological target: T1, C-X-C chemokine receptor type 2 (Homo sapiens, UniProt P25025); type: cell membranes, Membrane; settings: cho-k1; further: in other assays of this panel Not Active means under 50% inhibition at 10 µM
T1 sequence (P25025 whole entry): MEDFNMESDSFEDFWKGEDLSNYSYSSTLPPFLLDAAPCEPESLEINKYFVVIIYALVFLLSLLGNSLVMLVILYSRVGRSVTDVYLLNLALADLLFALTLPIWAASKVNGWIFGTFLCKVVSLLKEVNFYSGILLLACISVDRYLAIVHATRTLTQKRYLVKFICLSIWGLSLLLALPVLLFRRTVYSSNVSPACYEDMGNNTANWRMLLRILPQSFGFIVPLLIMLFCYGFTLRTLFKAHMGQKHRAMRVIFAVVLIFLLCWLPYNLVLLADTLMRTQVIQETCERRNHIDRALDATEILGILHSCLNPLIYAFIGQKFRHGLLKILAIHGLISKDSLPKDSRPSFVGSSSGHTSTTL

Calcitonin receptor = biological target: T2, Calcitonin receptor (Homo sapiens, UniProt P30988); type: cell membranes, Membrane; settings: t47d; further: in other assays of this panel Not Active means under 50% inhibition at 10 µM
T2 sequence (P30988 whole entry): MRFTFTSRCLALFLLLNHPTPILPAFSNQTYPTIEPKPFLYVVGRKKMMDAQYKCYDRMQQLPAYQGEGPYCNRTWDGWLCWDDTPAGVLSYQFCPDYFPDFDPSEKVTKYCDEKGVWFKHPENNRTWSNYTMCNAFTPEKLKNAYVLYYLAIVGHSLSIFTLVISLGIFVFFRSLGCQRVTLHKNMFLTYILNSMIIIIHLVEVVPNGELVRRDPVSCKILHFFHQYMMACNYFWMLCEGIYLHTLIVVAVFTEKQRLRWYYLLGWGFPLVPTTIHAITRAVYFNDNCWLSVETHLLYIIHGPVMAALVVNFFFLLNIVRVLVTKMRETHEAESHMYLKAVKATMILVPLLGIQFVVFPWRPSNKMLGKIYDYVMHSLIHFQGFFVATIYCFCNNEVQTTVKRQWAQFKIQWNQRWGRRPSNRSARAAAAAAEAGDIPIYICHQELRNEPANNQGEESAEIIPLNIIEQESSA

[2] = DRUGMATRIX: Glutamate, NMDA, Agonism radioligand binding (ligand: [3H] CGP-39653); type: cell membranes, Rattus norvegicus, Wistar, Cerebral cortex, Membrane; settings: Not Active = under 50% inhibition at 10 µM
[3] = biological target: Voltage-gated inwardly rectifying potassium channel KCNH2 (Homo sapiens, UniProt Q12809); settings: hek293; further: in other assays of this panel Not Active means under 50% inhibition at 10 µM
Sequence of Voltage-gated inwardly rectifying potassium channel KCNH2 (Q12809 whole entry): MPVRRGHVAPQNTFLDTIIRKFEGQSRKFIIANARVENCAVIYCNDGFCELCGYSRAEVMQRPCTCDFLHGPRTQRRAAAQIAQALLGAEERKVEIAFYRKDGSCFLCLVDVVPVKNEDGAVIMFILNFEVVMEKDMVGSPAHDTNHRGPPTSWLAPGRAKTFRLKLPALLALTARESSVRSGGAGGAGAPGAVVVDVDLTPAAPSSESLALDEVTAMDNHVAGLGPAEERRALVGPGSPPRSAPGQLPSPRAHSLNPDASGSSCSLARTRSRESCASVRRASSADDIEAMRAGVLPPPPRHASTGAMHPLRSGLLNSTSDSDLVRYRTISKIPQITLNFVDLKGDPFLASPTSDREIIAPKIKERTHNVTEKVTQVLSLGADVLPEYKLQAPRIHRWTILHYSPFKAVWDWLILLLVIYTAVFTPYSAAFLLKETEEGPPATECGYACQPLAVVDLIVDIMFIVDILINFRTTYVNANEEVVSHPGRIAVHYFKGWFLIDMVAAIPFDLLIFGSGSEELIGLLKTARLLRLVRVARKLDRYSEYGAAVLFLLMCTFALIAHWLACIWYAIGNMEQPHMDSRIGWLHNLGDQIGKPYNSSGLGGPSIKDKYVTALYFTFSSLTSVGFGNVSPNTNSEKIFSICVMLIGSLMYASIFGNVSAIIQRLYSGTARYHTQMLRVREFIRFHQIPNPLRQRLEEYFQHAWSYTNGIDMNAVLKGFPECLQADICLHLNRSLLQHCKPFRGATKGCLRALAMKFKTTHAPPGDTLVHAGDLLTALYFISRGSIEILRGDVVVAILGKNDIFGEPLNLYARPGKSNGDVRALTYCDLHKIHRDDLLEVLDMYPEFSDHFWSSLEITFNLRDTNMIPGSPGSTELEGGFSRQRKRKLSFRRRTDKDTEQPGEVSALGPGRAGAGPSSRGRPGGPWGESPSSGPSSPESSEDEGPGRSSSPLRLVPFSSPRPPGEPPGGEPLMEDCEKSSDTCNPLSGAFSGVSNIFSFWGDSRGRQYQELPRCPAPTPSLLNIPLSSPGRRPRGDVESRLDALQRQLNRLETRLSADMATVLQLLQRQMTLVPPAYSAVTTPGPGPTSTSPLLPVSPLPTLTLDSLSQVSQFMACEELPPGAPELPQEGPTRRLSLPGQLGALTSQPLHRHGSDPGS

[4] = biological target: C-C chemokine receptor type 2 (Homo sapiens, UniProt P41597); type: cell membranes, Membrane; settings: cho-k1; further: in other assays of this panel Not Active means under 50% inhibition at 10 µM
Sequence of C-C chemokine receptor type 2 (P41597 whole entry): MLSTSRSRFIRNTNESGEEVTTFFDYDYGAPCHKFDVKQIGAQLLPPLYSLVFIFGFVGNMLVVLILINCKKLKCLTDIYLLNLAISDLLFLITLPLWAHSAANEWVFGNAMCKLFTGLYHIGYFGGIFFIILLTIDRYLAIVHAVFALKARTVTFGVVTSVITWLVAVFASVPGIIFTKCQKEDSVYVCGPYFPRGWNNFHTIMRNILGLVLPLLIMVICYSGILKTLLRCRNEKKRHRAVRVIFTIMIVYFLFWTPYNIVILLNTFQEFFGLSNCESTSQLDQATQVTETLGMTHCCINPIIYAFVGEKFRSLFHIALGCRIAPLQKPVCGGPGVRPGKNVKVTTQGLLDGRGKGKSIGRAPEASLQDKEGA

Melanocortin receptor 5 = Melanocortin receptor 5 (Homo sapiens, UniProt P33032); type: cell membranes, HEK293, Membrane; settings: hek293; further: in other assays of this panel Not Active means under 50% inhibition at 10 µM
Sequence of Melanocortin receptor 5 (P33032 whole entry): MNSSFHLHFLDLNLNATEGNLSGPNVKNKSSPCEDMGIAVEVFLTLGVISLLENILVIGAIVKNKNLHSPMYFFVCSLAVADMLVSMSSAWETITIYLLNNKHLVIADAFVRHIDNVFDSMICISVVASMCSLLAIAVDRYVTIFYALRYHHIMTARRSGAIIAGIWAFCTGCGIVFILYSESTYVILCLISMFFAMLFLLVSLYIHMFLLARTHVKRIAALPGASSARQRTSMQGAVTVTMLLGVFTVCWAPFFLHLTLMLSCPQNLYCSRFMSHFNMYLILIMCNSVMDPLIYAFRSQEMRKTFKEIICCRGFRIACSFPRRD

[5] = biological target: T3, Nitric oxide synthase, inducible (Mus musculus, UniProt P29477); design: species or system Escherichia coli
T3 sequence (P29477 whole entry): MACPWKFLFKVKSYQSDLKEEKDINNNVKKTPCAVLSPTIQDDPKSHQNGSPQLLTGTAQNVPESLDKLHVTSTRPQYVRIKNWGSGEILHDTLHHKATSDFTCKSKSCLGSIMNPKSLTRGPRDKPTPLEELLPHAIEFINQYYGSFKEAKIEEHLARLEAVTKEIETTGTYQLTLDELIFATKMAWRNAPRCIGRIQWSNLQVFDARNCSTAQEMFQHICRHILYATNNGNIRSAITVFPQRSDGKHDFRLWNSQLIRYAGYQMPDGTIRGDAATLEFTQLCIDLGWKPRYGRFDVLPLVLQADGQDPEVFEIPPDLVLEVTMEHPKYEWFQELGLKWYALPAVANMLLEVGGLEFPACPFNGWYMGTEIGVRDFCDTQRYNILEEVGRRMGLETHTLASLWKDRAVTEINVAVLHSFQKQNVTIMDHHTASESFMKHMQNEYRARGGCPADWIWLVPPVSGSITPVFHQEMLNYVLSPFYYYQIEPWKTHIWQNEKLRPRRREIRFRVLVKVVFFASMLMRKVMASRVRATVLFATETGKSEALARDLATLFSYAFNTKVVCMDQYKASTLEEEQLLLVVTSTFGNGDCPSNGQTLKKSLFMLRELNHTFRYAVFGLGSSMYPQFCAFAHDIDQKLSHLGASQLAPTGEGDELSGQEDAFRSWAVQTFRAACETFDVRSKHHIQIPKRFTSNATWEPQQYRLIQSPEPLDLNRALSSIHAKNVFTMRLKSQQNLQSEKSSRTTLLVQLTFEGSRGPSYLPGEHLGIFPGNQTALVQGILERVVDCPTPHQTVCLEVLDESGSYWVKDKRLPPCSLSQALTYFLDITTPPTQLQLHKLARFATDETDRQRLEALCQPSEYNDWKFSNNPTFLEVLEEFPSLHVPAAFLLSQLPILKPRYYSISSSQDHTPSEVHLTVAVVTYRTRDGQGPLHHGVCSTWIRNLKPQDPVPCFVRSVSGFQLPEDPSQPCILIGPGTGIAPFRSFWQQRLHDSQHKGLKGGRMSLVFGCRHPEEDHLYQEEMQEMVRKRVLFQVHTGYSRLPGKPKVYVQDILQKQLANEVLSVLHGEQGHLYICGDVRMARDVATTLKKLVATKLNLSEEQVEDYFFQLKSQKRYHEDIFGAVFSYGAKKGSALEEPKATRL

[6] = DRUGMATRIX: Interleukin IL-1 radioligand binding (ligand: [125I] interleukin 1beta); type: cell membranes, Membrane; settings: nih3t3; Not Active = under 50% inhibition at 10 µM

GENTAMICIN
Not Active: IC50 [1] | Ki [1] | IC50 (Calcitonin receptor) | Ki (Calcitonin receptor) | IC50 [2] | Ki [2] | IC50 [3] | Ki [3] | IC50 [4] | Ki [4] | IC50 (Melanocortin receptor 5) | Ki (Melanocortin receptor 5) | IC50 [5] | Ki [5] | IC50 [6] | Ki [6]

CC(=O)Oc1ccc(C(c2ccc(OC(C)=O)cc2)c2ccccn2)cc1 [BISACODYL]
Not Active: IC50 [1] | IC50 (Calcitonin receptor) | IC50 [2] | Ki [2] | IC50 [3] | Ki [3] | IC50 [4] | IC50 (Melanocortin receptor 5) | IC50 [5] | IC50 [6] | Ki [6]

C[C@@H]1O[C@@H](O[C@@H]2C=C3CC[C@@H]4[C@H](CC[C@]5(C)[C@@H](c6ccc(=O)oc6)CC[C@]45O)[C@@]3(C)CC2)[C@H](O)[C@H](O)[C@H]1O [PROSCILLARIDIN]
Not Active: IC50 [1] | IC50 (Calcitonin receptor) | IC50 [2] | Ki [2] | IC50 [3] | Ki [3] | IC50 [4] | IC50 (Melanocortin receptor 5) | IC50 [5] | IC50 [6] | Ki [6]

C[C@@H]1C[C@H]2[C@@H]3CCC4=CC(=O)C=C[C@]4(C)[C@@]3(F)[C@@H](O)C[C@]2(C)[C@@]1(O)C(=O)CO [DEXAMETHASONE]
Not Active: IC50 [1] | IC50 (Calcitonin receptor) | IC50 [2] | Ki [2] | IC50 [3] | Ki [3] | IC50 [4] | IC50 (Melanocortin receptor 5) | IC50 [5] | IC50 [6] | Ki [6]

C[n+]1ccc(-c2cc[n+](C)cc2)cc1.[Cl-].[Cl-] [PARAQUAT DICHLORIDE]
Not Active: IC50 [1] | IC50 (Calcitonin receptor) | IC50 [2] | Ki [2] | IC50 [3] | Ki [3] | IC50 [4] | IC50 (Melanocortin receptor 5) | IC50 [5] | IC50 [6] | Ki [6]

Cc1cc2c(OCC(CNC(C)(C)C)OC(=O)c3ccccc3)cccc2[nH]1 (configuration not stated) [BOPINDOLOL]
Not Active: IC50 [1] | IC50 (Calcitonin receptor) | IC50 [2] | Ki [2] | IC50 [3] | Ki [3] | IC50 [4] | IC50 (Melanocortin receptor 5) | IC50 [5] | IC50 [6] | Ki [6]

Nc1ccn([C@@H]2O[C@H](CO)[C@@H](O)C2(F)F)c(=O)n1 [GEMCITABINE]
Not Active: IC50 [1] | IC50 (Calcitonin receptor) | IC50 [2] | Ki [2] | IC50 [3] | Ki [3] | IC50 [4] | IC50 (Melanocortin receptor 5) | IC50 [5] | IC50 [6] | Ki [6]

Nc1ccn([C@@H]2O[C@H](CO)[C@@H](O)[C@@H]2O)c(=O)n1 [CYTARABINE]
Not Active: IC50 [1] | IC50 (Calcitonin receptor) | IC50 [2] | Ki [2] | IC50 [3] | Ki [3] | IC50 [4] | IC50 (Melanocortin receptor 5) | IC50 [5] | IC50 [6] | Ki [6]

GADOPENTETATE DIMEGLUMINE
Not Active: IC50 [1] | Ki [1] | IC50 (Calcitonin receptor) | Ki (Calcitonin receptor) | IC50 [2] | Ki [2] | IC50 [3] | Ki [3] | IC50 [4] | Ki [4] | IC50 (Melanocortin receptor 5) | Ki (Melanocortin receptor 5) | IC50 [5] | Ki [5] | IC50 [6] | Ki [6]

C=CCc1ccc(O)c(OC)c1 [EUGENOL]
Not Active: IC50 [1] | IC50 (Calcitonin receptor) | IC50 [2] | Ki [2] | IC50 [3] | Ki [3] | IC50 [4] | IC50 (Melanocortin receptor 5) | IC50 [5] | IC50 [6] | Ki [6]

CCn1cc(C(=O)O)c(=O)c2cnc(N3CCCC3)nc21 [PIROMIDIC ACID]
Not Active: IC50 [1] | IC50 (Calcitonin receptor) | IC50 [2] | Ki [2] | IC50 [3] | Ki [3] | IC50 [4] | IC50 (Melanocortin receptor 5) | IC50 [5] | IC50 [6] | Ki [6]

CC(C)c1cccc(C(C)C)c1O [PROPOFOL]
Not Active: IC50 [1] | IC50 (Calcitonin receptor) | IC50 [2] | Ki [2] | IC50 [3] | Ki [3] | IC50 [4] | IC50 (Melanocortin receptor 5) | IC50 [5] | IC50 [6] | Ki [6]
